Experimental data from patent publication US20110045101A1, “FUNGICIDAL SUBSTITUTED AZOLES” (E.I. Du Pont De Nemours and Company, priority 2009, published 2011).
Marks after values point to notes of the source that are not given here.

Legend:
Assay type in all cases: in vivo
Settings in all cases: 100 = 100% disease control
Botrytis cinerea = assay: Test C: tomato Botrytis on tomato seedlings, sprayed the day before inoculation, visual disease rating
Method in brief: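 Disease scored by eye on tomato seedlings inoculated with Botrytis cinerea a day after treatment. Treatment was a run-off spray at 200 ppm (equivalent to 500 g/ha), or 40 ppm where marked, in acetone/water carrying 250 ppm Trem 014.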

Alternaria solani = assay: Test D: tomato early blight, sprayed the day before inoculation, visual disease rating
Method in brief: (§1)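 Ratings reflect a 200 ppm spray (≈500 g/ha) unless marked as 40 ppm. Plants were sprayed to run-off. The spray suspension was acetone/purified water 50/50 containing 250 ppm Trem 014, after first dissolving compound in acetone at 3% of final volume.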

Septoria nodorum = assay: Test F: wheat glume blotch on wheat seedlings, sprayed the day before inoculation, visual disease rating
Method in brief: as §1

Septoria tritici = assay: Test G: wheat leaf blotch on wheat seedlings, sprayed the day before inoculation, visual disease rating
Method in brief: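 Wheat seedlings were sprayed to run-off with test suspension (acetone/water plus surfactant), generally 200 ppm (≈500 g/ha), or 40 ppm where marked. Septoria tritici spores were inoculated the next day; plants were held 48 h at 24°C in saturated atmosphere, then 19 days at 20°C before visual disease rating.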

[1] = system: Puccinia recondita f. sp. tritici; assay: Test I: wheat leaf rust on wheat seedlings, sprayed the day before inoculation, visual disease rating
Method in brief: as §1

[2] = system: Erysiphe graminis f. sp. tritici; assay: Test J: wheat powdery mildew on wheat seedlings, sprayed the day before inoculation, visual disease rating
Method in brief: as §1

[3] = 200 ppm, 0 = no control relative to controls
[4] = 40 ppm (marked *), 0 = no control

For `CC(C)c1nc(Cl)c(-c2c(F)cccc2F)n1-c1ccc(Cl)cc1` [compound 116], the “Test C disease control rating” value (Botrytis cinerea; 40 ppm (marked *)) was 0* %, the “Test D disease control rating” value (Alternaria solani; 40 ppm (marked *)) was 0* % and the “Test F disease control rating” value (Septoria nodorum; 40 ppm (marked *)) was 0* %. For the same compound, the “Test G disease control rating” value (Septoria tritici; 40 ppm (marked *)) was 0* %, the “Test I disease control rating” value ([1]; 40 ppm (marked *)) was 0* % and the “Test J disease control rating” value ([2]; 40 ppm (marked *)) was 0* %.

For `COc1cc(F)c(-c2c(Cl)nc(Cl)n2-c2ccc(F)cc2)c(F)c1` [compound 142], the “Test C disease control rating” value (Botrytis cinerea; [3]) was 99%, the “Test D disease control rating” value (Alternaria solani; [3]) was 100% and the “Test F disease control rating” value (Septoria nodorum; [3]) was 97%. For the same compound, the “Test G disease control rating” value (Septoria tritici; [3]) was 94%, the “Test I disease control rating” value [1, 3] was 100% and the “Test J disease control rating” value [2, 3] was 100%.

With `Cc1nc(Cl)c(-c2c(F)ccc(F)c2F)n1-c1ccc(Cl)c(F)c1` [compound 157] the “Test C disease control rating” value (Botrytis cinerea; 200 ppm, 0 = no control) was 97%, the “Test D disease control rating” value (Alternaria solani; 200 ppm, 0 = no control) was 99% and the “Test F disease control rating” value (Septoria nodorum; 200 ppm, 0 = no control) was 98%. For the same compound, the “Test G disease control rating” value (Septoria tritici; 200 ppm, 0 = no control) was 97%, the “Test I disease control rating” value ([1]; 200 ppm, 0 = no control) was 100% and the “Test J disease control rating” value ([2]; 200 ppm, 0 = no control) was 100%.

For `COc1cc(F)c(-c2c(Cl)nc(Br)n2-c2ccc(Cl)nc2)c(F)c1` [compound 729], the “Test C disease control rating” value (Botrytis cinerea; [3]) was 100%, the “Test D disease control rating” value (Alternaria solani; [3]) was 100% and the “Test F disease control rating” value (Septoria nodorum; [3]) was 99%. For the same compound, the “Test G disease control rating” value (Septoria tritici; [3]) was 99%, the “Test I disease control rating” value [1, 3] was 100% and the “Test J disease control rating” value [2, 3] was 100%.

`COc1cc(F)c(-c2c(Cl)nc(Cl)n2-c2ccc(C)cc2)c(F)c1` [compound 146] was tested, and the “Test C disease control rating” value (Botrytis cinerea; [3]) was 99%, the “Test D disease control rating” value (Alternaria solani; [3]) was 100% and the “Test F disease control rating” value (Septoria nodorum; [3]) was 100%. For the same compound, the “Test G disease control rating” value (Septoria tritici; [3]) was 100%, the “Test I disease control rating” value [1, 3] was 100% and the “Test J disease control rating” value [2, 3] was 100%.

In the case of `Cc1ncn(-c2ccc(Cl)c(F)c2)c1-c1c(Cl)cncc1Cl` [compound 255], the “Test C disease control rating” value (Botrytis cinerea; 200 ppm, 0 = no control) is reported as 99%, the “Test D disease control rating” value (Alternaria solani; 200 ppm, 0 = no control) is reported as 0% and the “Test F disease control rating” value (Septoria nodorum; 200 ppm, 0 = no control) is reported as 0%. For the same compound, the “Test G disease control rating” value (Septoria tritici; 200 ppm, 0 = no control) was 95%, the “Test I disease control rating” value ([1]; 200 ppm, 0 = no control) was 86% and the “Test J disease control rating” value ([2]; 200 ppm, 0 = no control) was 91%.

For `Fc1cc(F)c(-n2cnc(Cl)c2-c2ccc(Cl)cc2)c(F)c1` [compound 98], the “Test C disease control rating” value (Botrytis cinerea; 40 ppm (marked *)) was 0* %, the “Test D disease control rating” value (Alternaria solani; 40 ppm (marked *)) was 0* % and the “Test F disease control rating” value (Septoria nodorum; 40 ppm (marked *)) was 0* %. The “Test G disease control rating” value (Septoria tritici; 40 ppm (marked *)) was 27* %, the “Test I disease control rating” value ([1]; 40 ppm (marked *)) was 0* % and the “Test J disease control rating” value ([2]; 40 ppm (marked *)) was 0* %.

With `COc1cc(F)c(-n2c(C)nc(C)c2-c2ccc(Cl)cc2)c(F)c1` [compound 249] the “Test C disease control rating” value (Botrytis cinerea; [4]) was 100* %, the “Test D disease control rating” value (Alternaria solani; [4]) was 99* % and the “Test F disease control rating” value (Septoria nodorum; [4]) was 73* %. The “Test G disease control rating” value (Septoria tritici; [4]) was 93* %, the “Test I disease control rating” value [1, 4] was 74* % and the “Test J disease control rating” value [2, 4] was 81* %.

With `Cc1nc(Cl)n(-c2ccc(Cl)c(F)c2)c1-c1ccccn1` [compound 264] the “Test C disease control rating” value (Botrytis cinerea; 200 ppm, 0 = no control) was 99%, the “Test D disease control rating” value (Alternaria solani; 200 ppm, 0 = no control) was 88% and the “Test F disease control rating” value (Septoria nodorum; 200 ppm, 0 = no control) was 0%. For the same compound, the “Test G disease control rating” value (Septoria tritici; 200 ppm, 0 = no control) was 95%, the “Test I disease control rating” value ([1]; 200 ppm, 0 = no control) was 98% and the “Test J disease control rating” value ([2]; 200 ppm, 0 = no control) was 99%.

`Fc1ccc(-n2cnc(Cl)c2-c2c(F)ccc(F)c2F)cc1` [compound 121] was tested, and the “Test C disease control rating” value (Botrytis cinerea; [3]) was 99%, the “Test D disease control rating” value (Alternaria solani; [3]) was 100% and the “Test F disease control rating” value (Septoria nodorum; [3]) was 0%. The “Test G disease control rating” value (Septoria tritici; [3]) was 85%, the “Test I disease control rating” value [1, 3] was 89% and the “Test J disease control rating” value [2, 3] was 97%.

For `Cc1ccc(-n2c(C)nc(Cl)c2-c2c(F)ccc(F)c2F)cc1C` [compound 238], the “Test C disease control rating” value (Botrytis cinerea; 200 ppm, 0 = no control) was 99%, the “Test D disease control rating” value (Alternaria solani; 200 ppm, 0 = no control) was 99% and the “Test F disease control rating” value (Septoria nodorum; 200 ppm, 0 = no control) was 0%. For the same compound, the “Test G disease control rating” value (Septoria tritici; 200 ppm, 0 = no control) was 93%, the “Test I disease control rating” value ([1]; 200 ppm, 0 = no control) was 96% and the “Test J disease control rating” value ([2]; 200 ppm, 0 = no control) was 100%.

`Fc1ccc(-n2cnc(Cl)c2-c2c(F)ccc(F)c2Cl)cc1` [compound 176] was tested, and the “Test C disease control rating” value (Botrytis cinerea; 200 ppm, 0 = no control) was 96%, the “Test D disease control rating” value (Alternaria solani; 200 ppm, 0 = no control) was 91% and the “Test F disease control rating” value (Septoria nodorum; 200 ppm, 0 = no control) was 0%. For the same compound, the “Test G disease control rating” value (Septoria tritici; 200 ppm, 0 = no control) was 87%, the “Test I disease control rating” value ([1]; 200 ppm, 0 = no control) was 99% and the “Test J disease control rating” value ([2]; 200 ppm, 0 = no control) was 99%.
